Experimental data from article PMC8241654 (Cell, 2021).

Test system: HLA class I
Assay type: cell-based, Human

## MIAQYTSAL [B7 COVID 16]
  HLA class I stabilization across alleles (in words): can stabilize a number of HLA class I alleles
